Several values for one entry are separate records, joined by “and”; a condition that tells them apart may be missing. Equal values may be shown once. Read-outs that look alike come from different tables or passages of the source.
Tests used:
[1] = test system: ZIKV-induced caspase 3/7 activity in SNB-19 cells; experiment: Caspase 3/7 activity assay, ZIKV-infected SNB-19 cells; assay type: cell-based; settings: ZIKV-infected SNB-19 cells; for IC50: read-out: Caspase 3 (IC50, uM) SNB-19; for Emax: read-out: Caspase 3 (efficacy, %) SNB-19
How it was run: (§1)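 Human NPCs, SNB-19 cells or astrocytes seeded 16 h, compound added 30 min before ZIKV, then 6 h infection at 37 °C. Caspase-Glo 3/7 luminescence after 30 min at room temperature, normalized to uninfected cells (0%) and ZIKV-infected cells (100%).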

[2] = test system: ZIKV-induced cell death in SNB-19 cells; experiment: ATP cell viability assay for ZIKV-induced cell death, SNB-19 cells; assay type: cell-based, human; settings: ZIKV-infected SNB-19 cells
How it was run: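 The extent of cell death caused by ZIKV infection was determined from ATP levels. Cells grew in assay plates for 16 hours at 37° C. with 5% CO2, were then given ZIKV solution and kept under the same conditions for 72 hours. ATPlite reagent was applied for 15 minutes and luminescence was read on a ViewLux plate reader. Cell-free wells defined 100% killing and uninfected cell wells defined full viability.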

[3] = test system: ZIKV-induced cell death in human astrocytes; experiment: ATP cell viability assay for ZIKV-induced cell death, human astrocytes; assay type: cell-based; settings: ZIKV-infected human astrocytes
[4] = test system: ZIKV-induced caspase 3/7 activity in human astrocytes; experiment: Caspase 3/7 activity assay, ZIKV-infected human astrocytes; assay type: cell-based; settings: ZIKV-infected human astrocytes; for IC50: read-out: Caspase 3 (IC50, uM) Astrocyte; for Emax: read-out: Caspase 3 (efficacy, %) Astrocyte
How it was run: as §1

Compound | IC50 ([1]; Homo sapiens) | Emax ([1]; Homo sapiens) | Cell viability (efficacy, %) SNB-19 [2] | Cell viability (efficacy, %) Astrocyte [3] | IC50 ([4]; Astrocyte) | Emax ([4]; Astrocyte) | Caspase 3 (efficacy, %) SNB-19 [1] | IC50 [1] | Caspase 3 (efficacy, %) Astrocyte [4] | IC50 [4] | IC50 ([2]; read-out: Cell viability (IC50, uM) SNB-19)
CN1CCN(c2cc3c(nn2)Oc2ccccc2N3C)CC1 [Pipofezine] | 15.1 µM | 31.5% | 0.0% | 0.0% | 11.3 µM | 56.3% | – | – | – | – | –
Cc1cccc(/C=C/c2ccccc2)n1 [SIB 1893] | – | – | 0.0% | 0.0% | – | – | 105% | 15.5 µM | 96.2% | 12.3 µM | –
CC(C(=O)O)c1ccc(C(=O)c2cccs2)cc1 (centres unmarked) [Suprofen] | 17.3 µM | 65.6% | 0.0% | 0.0% | 19.5 µM | 64.5% | – | – | – | – | –
c1ccc2[nH]c(-c3cscn3)nc2c1 [Thiabendazole] | 14.6 µM | 89.4% | 0.0% | 0.0% | 10.3 µM | 81% | – | – | – | – | –
CC(C(=O)O)c1ccc(C(=O)c2ccccc2)s1 (centres unmarked) [Tiaprofenic acid] | 10.3 µM | 96.2% | 0.0% | 0.0% | 6.15 µM | 88.2% | – | – | – | – | –
COc1cccc(-c2ccc(NC(=O)C3=C(C(=O)O)CCC3)c(F)c2)c1 [Vidofludimus] | 3.66 µM | 101% | 0.0% | 0.0% | 2.91 µM | 101% | – | – | – | – | –
Flurbiprofen axetil | – | – | 0.0% | 0.0% | – | – | 45.7% | 19.5 µM | 65.5% | 21.8 µM | –
Vitamin B12 | – | – | – | 0.0% | – | – | – | 11.6 µM and 13.4 µM | 77.1% and 62.7% | 8.69 µM and 6.73 µM | 0.12 µM

Source: US10940188B2, “Compounds and methods for treatment and prevention of Flavivirus infection” (priority 2016, dated 2021)
